Laboratory results reported in paper PMC8566089 (Bioorganic Chemistry, 2021).

Columns and labels:
[1] = test system: A431 (squamous skin) cancer cell line; test: MTT antiproliferative assay, A431; assay type: cell-based; conditions: for IC50: Homo sapiens, A-431, 72 h, read-out: IC50 ± SE, A431; for SI (selectivity index), A431: IC50 of RPE1 relative to that of A431
[2] = test system: MCF7 (breast) cancer cell line; test: MTT antiproliferative assay, MCF7; assay type: cell-based; conditions: for IC50: Homo sapiens, MCF7, 72 h, read-out: IC50 ± SE, MCF7; for SI (selectivity index), MCF7: IC50 of RPE1 relative to that of MCF7
[3] = test system: HCT116 (colon) cancer cell line; test: MTT antiproliferative assay, HCT116; assay type: cell-based; conditions: for IC50: Homo sapiens, HCT-116, 72 h, read-out: IC50 ± SE, HCT116; for SI (selectivity index), HCT116: IC50 of RPE1 relative to that of HCT116
[4] = test system: RPE1 (normal human immortalized retinal pigment epithelial cell line); test: MTT assay against normal RPE1 cells; assay type: cell-based; conditions: RPE-1, read-out: IC50 ± SE, RPE1
[5] = test system: HCT116 (colon cancer cell line); test: PI-flow cytometry cell cycle analysis; assay type: cell-based; conditions: for phase of cell cycle arrest: PI-flow cytometry; for DNA content (%) G0-G1 / DNA content (%) G2/M / DNA content (%) Pre-G1 / DNA content (%) S: at MTT-IC50 of the agent
[6] = test system: HCT116 (colon cancer cell line); test: Annexin V-FITC apoptosis/necrosis study; assay type: cell-based; conditions: at MTT-IC50 of the agent
VEGFR-2 [7] = molecular target: T1, VEGFR-2 (Homo sapiens, UniProt P35968); test: VEGFR-2 Western blot in MCF7; assay type: cell-based; conditions: for VEGFR2 MCF7 % Inhibition: Western blot at MTT-IC50; for VEGFR2 MCF7 RQ (relative quantification): Western blot at MTT-IC50, control RQ 3.725
T1 sequence (P35968 20-1356): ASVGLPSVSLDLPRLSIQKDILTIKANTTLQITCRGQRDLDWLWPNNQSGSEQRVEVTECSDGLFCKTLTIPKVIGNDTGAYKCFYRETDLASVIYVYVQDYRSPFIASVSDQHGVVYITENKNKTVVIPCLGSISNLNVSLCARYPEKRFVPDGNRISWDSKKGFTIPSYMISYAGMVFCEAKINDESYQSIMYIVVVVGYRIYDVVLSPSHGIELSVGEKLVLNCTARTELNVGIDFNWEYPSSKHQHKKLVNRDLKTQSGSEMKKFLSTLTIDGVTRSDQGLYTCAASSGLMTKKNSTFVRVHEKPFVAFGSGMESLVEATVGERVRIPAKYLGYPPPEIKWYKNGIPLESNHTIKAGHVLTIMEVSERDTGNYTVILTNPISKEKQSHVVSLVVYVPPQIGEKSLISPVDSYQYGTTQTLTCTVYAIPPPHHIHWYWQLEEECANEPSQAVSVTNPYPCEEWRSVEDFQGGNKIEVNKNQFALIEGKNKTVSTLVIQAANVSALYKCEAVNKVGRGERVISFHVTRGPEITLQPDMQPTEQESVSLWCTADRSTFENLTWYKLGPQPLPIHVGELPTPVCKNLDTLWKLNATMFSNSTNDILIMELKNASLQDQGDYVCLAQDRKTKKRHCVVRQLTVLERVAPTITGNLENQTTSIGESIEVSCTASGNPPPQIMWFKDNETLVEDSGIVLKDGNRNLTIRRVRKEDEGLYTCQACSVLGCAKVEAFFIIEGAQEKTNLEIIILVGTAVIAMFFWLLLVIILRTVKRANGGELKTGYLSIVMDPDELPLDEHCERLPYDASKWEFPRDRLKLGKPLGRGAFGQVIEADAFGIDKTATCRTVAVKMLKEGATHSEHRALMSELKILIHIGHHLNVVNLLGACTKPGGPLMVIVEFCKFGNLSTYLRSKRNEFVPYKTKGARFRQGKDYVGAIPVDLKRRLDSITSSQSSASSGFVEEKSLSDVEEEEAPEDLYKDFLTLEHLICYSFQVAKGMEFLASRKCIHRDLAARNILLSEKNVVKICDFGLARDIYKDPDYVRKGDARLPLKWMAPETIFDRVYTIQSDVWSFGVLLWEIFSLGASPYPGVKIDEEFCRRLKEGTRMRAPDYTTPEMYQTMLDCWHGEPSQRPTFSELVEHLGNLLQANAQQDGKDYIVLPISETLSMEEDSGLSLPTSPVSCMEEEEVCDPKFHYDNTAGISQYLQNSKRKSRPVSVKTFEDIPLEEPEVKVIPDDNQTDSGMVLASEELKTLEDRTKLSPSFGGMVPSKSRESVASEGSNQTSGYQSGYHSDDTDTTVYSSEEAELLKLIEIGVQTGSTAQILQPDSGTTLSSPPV

VEGFR-2 [8] = molecular target: T1, VEGFR-2; test: VEGFR-2 Western blot in HCT116; assay type: cell-based; conditions: for VEGFR2 HCT116 % Inhibition: Western blot at MTT-IC50; for VEGFR2 HCT116 RQ (relative quantification): Western blot at MTT-IC50, control RQ 3.817
EGFR [9] = molecular target: T2, EGFR (Homo sapiens, UniProt P00533); test: EGFR Western blot in MCF7; assay type: cell-based; conditions: for EGFR MCF7 % Inhibition: Western blot at MTT-IC50; for EGFR MCF7 RQ (relative quantification): Western blot at MTT-IC50, control RQ 4.226
T2 sequence (P00533 25-1210): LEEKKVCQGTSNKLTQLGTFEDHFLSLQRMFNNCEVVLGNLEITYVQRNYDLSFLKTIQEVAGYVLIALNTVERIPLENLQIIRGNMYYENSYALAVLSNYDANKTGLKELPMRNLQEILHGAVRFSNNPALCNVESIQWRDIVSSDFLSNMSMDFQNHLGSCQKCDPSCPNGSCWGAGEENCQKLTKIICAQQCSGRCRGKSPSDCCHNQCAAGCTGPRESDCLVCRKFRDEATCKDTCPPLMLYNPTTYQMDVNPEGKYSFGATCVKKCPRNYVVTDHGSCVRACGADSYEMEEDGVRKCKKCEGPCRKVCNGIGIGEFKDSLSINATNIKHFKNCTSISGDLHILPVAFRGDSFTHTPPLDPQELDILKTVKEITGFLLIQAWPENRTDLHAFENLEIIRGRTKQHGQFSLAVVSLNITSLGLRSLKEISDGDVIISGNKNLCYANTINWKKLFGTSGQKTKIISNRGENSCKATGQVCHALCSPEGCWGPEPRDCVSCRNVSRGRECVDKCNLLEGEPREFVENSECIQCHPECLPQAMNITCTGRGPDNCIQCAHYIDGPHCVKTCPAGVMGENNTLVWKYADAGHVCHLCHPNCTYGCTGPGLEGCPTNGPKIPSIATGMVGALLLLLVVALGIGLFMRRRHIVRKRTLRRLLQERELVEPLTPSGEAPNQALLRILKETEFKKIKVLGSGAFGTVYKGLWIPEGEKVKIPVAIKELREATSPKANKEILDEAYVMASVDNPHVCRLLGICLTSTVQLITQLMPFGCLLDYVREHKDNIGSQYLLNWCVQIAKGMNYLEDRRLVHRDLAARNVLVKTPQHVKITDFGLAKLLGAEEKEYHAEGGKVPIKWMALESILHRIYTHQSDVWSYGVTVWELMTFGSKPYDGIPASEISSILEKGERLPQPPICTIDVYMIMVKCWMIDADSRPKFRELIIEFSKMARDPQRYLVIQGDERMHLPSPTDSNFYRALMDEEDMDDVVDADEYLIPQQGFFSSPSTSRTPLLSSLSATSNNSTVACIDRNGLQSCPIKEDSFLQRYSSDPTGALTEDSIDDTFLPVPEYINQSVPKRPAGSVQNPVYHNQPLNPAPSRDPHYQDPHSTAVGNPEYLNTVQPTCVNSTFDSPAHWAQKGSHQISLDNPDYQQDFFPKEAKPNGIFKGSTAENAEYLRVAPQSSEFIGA

EGFR [10] = molecular target: T2, EGFR; test: EGFR Western blot in HCT116; assay type: cell-based; conditions: for EGFR HCT116 % Inhibition: Western blot at MTT-IC50; for EGFR HCT116 RQ (relative quantification): Western blot at MTT-IC50, control RQ 4.0382
COX-1 = molecular target: T3, COX-1 (Ovis aries, UniProt P05979); test: COX-1 inhibitor screening kit; assay type: biochemical
T3 sequence (P05979 25-600): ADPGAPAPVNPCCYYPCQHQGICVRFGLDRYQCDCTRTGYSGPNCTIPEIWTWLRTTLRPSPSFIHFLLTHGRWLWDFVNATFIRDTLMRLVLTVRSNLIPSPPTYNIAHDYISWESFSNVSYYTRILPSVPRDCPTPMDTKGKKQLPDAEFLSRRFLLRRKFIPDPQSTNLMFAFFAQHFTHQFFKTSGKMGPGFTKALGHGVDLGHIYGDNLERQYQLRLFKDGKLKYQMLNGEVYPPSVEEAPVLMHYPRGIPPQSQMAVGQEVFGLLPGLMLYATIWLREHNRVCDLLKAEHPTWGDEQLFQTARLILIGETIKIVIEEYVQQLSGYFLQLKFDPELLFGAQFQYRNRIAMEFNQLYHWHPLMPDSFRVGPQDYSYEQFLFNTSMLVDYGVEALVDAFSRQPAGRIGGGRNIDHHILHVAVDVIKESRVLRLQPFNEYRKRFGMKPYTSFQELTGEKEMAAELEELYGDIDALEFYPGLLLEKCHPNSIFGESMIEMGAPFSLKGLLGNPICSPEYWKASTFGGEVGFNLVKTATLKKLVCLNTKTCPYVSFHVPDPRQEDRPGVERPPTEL

COX-2 = molecular target: T4, COX-2 (Homo sapiens, UniProt P35354); test: COX-2 inhibitor screening kit; assay type: biochemical
T4 sequence (P35354 18-604): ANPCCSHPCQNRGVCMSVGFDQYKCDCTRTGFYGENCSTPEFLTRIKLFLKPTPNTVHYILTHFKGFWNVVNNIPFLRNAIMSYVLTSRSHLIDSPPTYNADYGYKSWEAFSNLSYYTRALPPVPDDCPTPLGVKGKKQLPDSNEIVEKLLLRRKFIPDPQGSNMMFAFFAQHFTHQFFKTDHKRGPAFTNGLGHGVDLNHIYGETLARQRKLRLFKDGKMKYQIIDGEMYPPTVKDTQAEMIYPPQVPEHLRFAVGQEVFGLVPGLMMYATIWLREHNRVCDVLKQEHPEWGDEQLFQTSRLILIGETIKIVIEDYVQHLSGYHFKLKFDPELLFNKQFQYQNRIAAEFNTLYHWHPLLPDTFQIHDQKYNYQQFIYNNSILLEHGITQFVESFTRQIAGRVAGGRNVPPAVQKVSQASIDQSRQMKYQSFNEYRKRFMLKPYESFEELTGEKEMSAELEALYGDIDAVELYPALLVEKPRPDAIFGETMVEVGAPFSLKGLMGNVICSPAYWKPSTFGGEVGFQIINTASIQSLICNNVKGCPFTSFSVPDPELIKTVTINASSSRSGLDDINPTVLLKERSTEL

[11] = test system: SARS-CoV-2 (hCoV-19/Egypt/NRC-03/2020); conditions: SARS-CoV-2 / VERO-E6

Structure (SMILES) | IC50 [1] [nM] | SI (selectivity index), A431 [1] | IC50 [2] [nM] | SI (selectivity index), MCF7 [2] | IC50 [3] [nM] | SI (selectivity index), HCT116 [3] | IC50 [4] [nM] | phase of cell cycle arrest [5] | VEGFR2 MCF7 % Inhibition (VEGFR-2 [7]) [%] | VEGFR2 MCF7 RQ (relative quantification) (VEGFR-2 [7]) | VEGFR2 HCT116 % Inhibition (VEGFR-2 [8]) [%] | VEGFR2 HCT116 RQ (relative quantification) (VEGFR-2 [8]) | EGFR MCF7 % Inhibition (EGFR [9]) [%] | EGFR MCF7 RQ (relative quantification) (EGFR [9]) | EGFR HCT116 % Inhibition (EGFR [10]) [%] | EGFR HCT116 RQ (relative quantification) (EGFR [10]) | IC50 (COX-1) [nM] | IC50 (COX-2) [nM] | SI = IC50(COX-1)/IC50(COX-2) (COX-2) | SI = CC50/IC50 [11] | further results
COc1cc(/C=C2\CN(C(=O)c3cc(Cl)ccc3OC(C)=O)C/C(=C\c3cc(OC)c(OC)c(OC)c3)C2=O)cc(OC)c1OC [Compound 5o, 4-Chloro-2-(4-oxo-3,5-bis((E)-3,4,5-trimethoxybenzylidene)piperidine-1-carbonyl)phenyl acetate] | 431 ± 30 | 16.3 | 2650 ± 220 | 2.65 | 750 ± 60 | 9.36 | 7020 ± 450 | S-phase | 63.0 | 1.38 | 69.6 | 1.16 | 69.2 | 1.3 | 68.2 | 1.283 | 193 | 1600 | 0.121 | 34.0 | DNA content (%) G0-G1 [5]: 42.75%; DNA content (%) G2/M [5]: 4.14%; DNA content (%) Pre-G1 [5]: 35.75%; DNA content (%) S [5]: 53.11%; Apoptosis (%) Early [6]: 1.72%; Apoptosis (%) Total [6]: 35.75%; Necrosis (%) [6]: 9.44%
COc1cc(/C=C2\CN(C(=O)c3ccccc3OC(C)=O)C/C(=C\c3cc(OC)c(OC)c(OC)c3)C2=O)cc(OC)c1OC [Compound 5h, 2-[4-Oxo-3,5-bis((E)-3,4,5-trimethoxybenzylidene)piperidine-1-carbonyl]phenyl acetate] | 472 ± 20 | 18.3 | 3990 ± 360 | 2.16 | 1330 ± 90 | 6.47 | 8620 ± 720 | – | 45.4 | 2.032 | 37.2 | 2.398 | 58.9 | 1.737 | 57.9 | 1.698 | 147 | 438 | 0.336 | 35.0 | –
CC(=O)Oc1ccccc1C(=O)N1C/C(=C\c2ccc(F)cc2)C(=O)/C(=C/c2ccc(F)cc2)C1 [Compound 5b, 2-[3,5-Bis((E)-4-fluorobenzylidene)-4-oxopiperidine-1-carbonyl]phenyl acetate] | 2120 ± 190 | 3.9 | 5760 ± 470 | 1.44 | 5100 ± 510 | 1.63 | 8300 ± 710 | – | 57.0 | 1.6 | 70.9 | 1.11 | 83.7 | 0.69 | 72.8 | 1.1 | 146 | 442 | 0.330 | 22.7 | –
CC(=O)Oc1ccccc1C(=O)N1C/C(=C\c2ccccc2)C(=O)/C(=C/c2ccccc2)C1 [Compound 5a, 2-[3,5-Di((E)-benzylidene)-4-oxopiperidine-1-carbonyl]phenyl acetate] | 4490 ± 410 | 2.4 | 4740 ± 380 | 2.25 | 4720 ± 420 | 2.25 | 10600 ± 1040 | – | 64.6 | 1.32 | 67.5 | 1.24 | 90.3 | 0.41 | 69.3 | 1.24 | 249 | 1550 | 0.161 | 18.5 | –
CCN(CC)CCNC(=O)c1c(C)[nH]c(/C=C2\C(=O)Nc3ccc(F)cc32)c1C [Sunitinib, reference compound] | – | – | – | – | – | – | – | S-phase | – | – | – | – | – | – | – | – | – | – | – | – | DNA content (%) G0-G1 [5]: 46.18%; DNA content (%) G2/M [5]: 7.59%; DNA content (%) Pre-G1 [5]: 31.69%; DNA content (%) S [5]: 46.23%; Apoptosis (%) Early [6]: 2.54%; Apoptosis (%) Late [6]: 21.69%; Apoptosis (%) Total [6]: 31.69%; Necrosis (%) [6]: 7.46%
